{"source": "paper PMC4581690", "about": "“Targeting Lysine Deacetylases (KDACs) in Parasites” (PLoS Neglected Tropical Diseases, 2015)", "key": {"P. falciparum 3D7 strain": {"test_system": "P. falciparum 3D7 strain", "assay": "MAL vt: Malaria viability assay", "format": "cell-based", "conditions": "Plasmodium falciparum"}, "T. brucei strain S427": {"test_system": "T. brucei strain S427", "assay": "HAT vt: Human African trypanosoma viability assay", "format": "cell-based", "conditions": "72 hour, resazurin, read-out: measured activity (IC50), HAT vt, TbbS427"}, "[1]": {"test_system": "L. donovani strain MHOM/SD/00/LS", "assay": "LEI axe: Leishmania axenic amastigote assay", "format": "cell-based"}, "L929 mouse fibroblast": {"test_system": "L929 mouse fibroblast", "assay": "CYT vt: cytotoxicity viability assay", "format": "cell-based"}, "[2]": {"test_system": "parasite species and L929 mouse fibroblast", "assay": "In vitro screening of compounds against parasite panel and mammalian cell line (overall statements)", "format": "cell-based"}, "human cancer cell lines": {"test_system": "human cancer cell lines", "set-up": "method as in PMID 23526814", "conditions": "8b and 10c therein; cited from earlier work"}, "Dirofilaria immitis": {"test_system": "Dirofilaria immitis", "assay": "Endoparasites_DR: endoparasites dose response assay, D. immitis", "format": "cell-based", "conditions": "72 h, read-out: measured activity (EC50), Endoparasites_DR, D. immitis"}, "Brugia malayi": {"test_system": "Brugia malayi", "assay": "Endoparasites_DR: endoparasites dose response assay, B. malayi", "format": "cell-based"}, "Haemonchus contortus": {"test_system": "Haemonchus contortus", "assay": "microbe, parasite or virus in culture", "format": "cell-based", "conditions": "96 hour, read-out: measured activity (EC50), Endoparasites_DR, H. contortus"}, "[3]": {"conditions": "3D7, 0.25 h, timepoint 15 minute, read-out: measured activity (IC50), MAL vt, PfDd2"}, "[4]": {"conditions": "72 hour, axenic amastigotes, resazurin, read-out: measured activity (IC50), LEI axe, Ld1S"}, "[5]": {"conditions": "Mus musculus, L929, read-out: measured activity (IC50), CYT vt, L929"}, "[6]": {"conditions": "120 h, 5 day, read-out: measured activity (EC50), Endoparasites_DR, B. malayi"}, "[7]": {"conditions": "Table 2, column B. malayi, read-out: EC50(IC50)"}, "[8]": {"conditions": "Mus musculus, Table 2, column H. sapiens, same values as L929 in Table 1, read-out: EC50(IC50)"}}, "note": "Read-outs that look alike come from different tables or passages of the source.", "data": [{"smiles": "O=C(CCCCCCC(=O)Nc1ccccc1)NO", "note": "[GRM1, SAHA, reference compound]", "values": [{"measurement": "IC50", "setting": "P. falciparum 3D7 strain; [3]", "result": 0.152, "unit": "µM"}]}, {"smiles": "CN1CCc2c(c3ccccc3n2Cc2ccc(C(=O)NO)cc2)C1", "note": "[GRM2, Tubastatin, reference compound]", "values": [{"measurement": "IC50", "setting": "T. brucei strain S427", "result": 2.7, "unit": "µM"}, {"measurement": "IC50", "setting": "[1]; [4]", "result": "> 5", "unit": "µM"}, {"measurement": "IC50", "setting": "L929 mouse fibroblast; [5]", "result": 6.22, "unit": "µM"}]}, {"smiles": "O=C(CCCCSc1nc(-c2ccc(-c3ccccc3)cc2)cc(=O)[nH]1)NO", "note": "[MC1742]", "values": [{"measurement": "IC50", "setting": "P. falciparum 3D7 strain; [3]", "result": "< 0.01", "unit": "µM"}, {"measurement": "IC50", "setting": "L929 mouse fibroblast; [5]", "result": 1.51, "unit": "µM"}]}, {"smiles": "O=C(CCCCCSc1nc2ccccc2c(=O)[nH]1)NO", "note": "[MC1862]", "values": [{"measurement": "IC50", "setting": "P. falciparum 3D7 strain; [3]", "result": 1.15, "unit": "µM"}, {"measurement": "IC50", "setting": "L929 mouse fibroblast; [5]", "result": 7.12, "unit": "µM"}]}, {"smiles": "COc1cc(-c2ccccc2)nc(SCc2ccc(/C=C/C(=O)NO)cc2)n1", "note": "[MC2126]", "values": [{"measurement": "IC50", "setting": "T. brucei strain S427", "result": 0.441, "unit": "µM"}, {"measurement": "IC50", "setting": "P. falciparum 3D7 strain; [3]", "result": 1.92, "unit": "µM"}, {"measurement": "IC50", "setting": "[1]; [4]", "result": "> 5", "unit": "µM"}, {"measurement": "IC50", "setting": "L929 mouse fibroblast; [5]", "result": 1.76, "unit": "µM"}]}, {"smiles": "O=C(/C=C/c1ccc(NC(=O)C(Cc2ccccc2)c2ccccc2)cn1)NO", "note": "(stereo not drawn) [MC2625]", "values": [{"measurement": "IC50", "setting": "T. brucei strain S427", "result": 1.18, "unit": "µM"}, {"measurement": "IC50", "setting": "P. falciparum 3D7 strain; [3]", "result": 0.022, "unit": "µM"}, {"measurement": "IC50", "setting": "[1]; [4]", "result": "> 5", "unit": "µM"}, {"measurement": "IC50", "setting": "L929 mouse fibroblast; [5]", "result": 0.311, "unit": "µM"}]}, {"smiles": "CC(C)(C)OC(=O)Nc1ccc(-c2cc(C(=O)NCCCCCCC(=O)NO)no2)cc1", "note": "[MC2726]", "values": [{"measurement": "IC50", "setting": "P. falciparum 3D7 strain; [3]", "result": 0.189, "unit": "µM"}, {"measurement": "IC50", "setting": "L929 mouse fibroblast; L929 mouse fibroblast, read-out: measured activity (IC50), CYT vt, L929", "result": 1.92, "unit": "µM"}]}, {"smiles": "CC(C)(C)OC(=O)Nc1cccc(-c2cc(C(=O)NCCCCCCC(=O)NO)no2)c1", "note": "[MC2727a]", "values": [{"measurement": "IC50", "setting": "P. falciparum 3D7 strain; [3]", "result": 0.96, "unit": "µM"}, {"measurement": "IC50", "setting": "L929 mouse fibroblast; [5]", "result": 2.35, "unit": "µM"}]}, {"smiles": "Cn1cc(/C=C/C(=O)c2cccc(NC(=O)OC(C)(C)C)c2)cc1C(=O)NO", "note": "[MC2776]", "values": [{"measurement": "efficacy in the protists", "setting": "[2]; T. brucei, L. donovani, P. falciparum", "result": "did not show any efficacy"}, {"measurement": "IC50", "setting": "human cancer cell lines", "result": "> 10", "unit": "µM"}, {"measurement": "EC50", "setting": "Dirofilaria immitis", "result": "> 10", "unit": "µM"}, {"measurement": "EC50", "setting": "Brugia malayi; [6]", "result": 4.39, "unit": "µM"}, {"measurement": "EC50", "setting": "Brugia malayi; [7]", "result": 4.39, "unit": "µM"}, {"measurement": "IC50", "setting": "L929 mouse fibroblast; [8]", "result": "> 10", "unit": "µM"}]}, {"smiles": "CC(C)(C)OC(=O)Nc1cccc(C(=O)/C=C/c2ccc(/C=C/C(=O)NO)cc2)c1", "note": "[MC2780]", "values": [{"measurement": "activity across parasites", "setting": "[2]", "result": "pan-parasite potential"}, {"measurement": "IC50", "setting": "T. brucei strain S427", "result": 0.623, "unit": "µM"}, {"measurement": "IC50 on human cancer cell lines", "setting": "human cancer cell lines", "result": "more potent IC50"}, {"measurement": "EC50", "setting": "Dirofilaria immitis", "result": 8.14, "unit": "µM"}, {"measurement": "IC50", "setting": "P. falciparum 3D7 strain; [3]", "result": 0.056, "unit": "µM"}, {"measurement": "IC50", "setting": "P. falciparum 3D7 strain; 3D7, Table 2, column P. falciparum, read-out: EC50(IC50)", "result": 0.06, "unit": "µM"}, {"measurement": "EC50", "setting": "Brugia malayi; [6]", "result": 2.53, "unit": "µM"}, {"measurement": "EC50", "setting": "Brugia malayi; [7]", "result": 2.53, "unit": "µM"}, {"measurement": "IC50", "setting": "[1]; [4]", "result": 0.473, "unit": "µM"}, {"measurement": "IC50", "setting": "[1]; Table 2, column L. donovani, read-out: EC50(IC50)", "result": 0.47, "unit": "µM"}, {"measurement": "IC50", "setting": "L929 mouse fibroblast; [8]", "result": 4.81, "unit": "µM"}]}, {"smiles": "CN(C)Cc1ccc(S(=O)(=O)n2ccc3cc(/C=C/C(=O)NO)ccc32)cc1", "note": "[MC3031]", "values": [{"measurement": "IC50", "setting": "T. brucei strain S427", "result": 0.267, "unit": "µM"}, {"measurement": "IC50", "setting": "[1]; [4]", "result": "> 5", "unit": "µM"}, {"measurement": "IC50", "setting": "L929 mouse fibroblast; [5]", "result": 0.555, "unit": "µM"}]}, {"smiles": "CCCCCCCC(=O)SCC/C=C/[C@@H]1CC(=O)NCc2nc(cs2)C2=N[C@@](C)(CS2)C(=O)N[C@@H](C(C)C)C(=O)O1", "note": "[SD-L-148, Largazole, reference compound]", "values": [{"measurement": "EC50", "setting": "Haemonchus contortus", "result": 7.1, "unit": "µM"}, {"measurement": "IC50", "setting": "L929 mouse fibroblast; [5]", "result": 0.101, "unit": "µM"}]}]}
